For orientation: IC50 means the midpoint of a concentration-inhibition curve.

The test system of assay [1] is SKOV3 cells. In words: CellTiter-Blue cell viability assay, single agent, 72 hour treatment, SKOV3. The format is cell-based. To be noted: Homo sapiens, SK-OV-3. On the procedure:
(§1) Cell viability in the presence of varying concentrations of the above listed compounds at different time points was used to assess cytotoxicity and the effect of the compounds on cell proliferation.
(§2) Cell viability was measured by the CellTiter-Blue® cell viability assay Promega (Madison, Wis.). This procedure measures the conversion of the indicator dye (resazurin) to resorufin, an indicator of cell viability. Following treatment, growth media was removed and cells were incubated with 20 μl of CellTiter-Blue® Reagent and growth media for 1-4 hours at 37° C. Fluorescence values were measured at 535/590 nm using a Beckman-Coulter DTX-880 microplate reader.
(§3) Cells were grown to 70% confluency, trypsinized, counted, and seeded in 96 well flat-bottom plates at a final concentration of 2.5×10^3-5×10^3 cells/well (Day 0). Cells were allowed to incubate in growth media for 24 hours to allow for maximum adhesion. Treatment with the test agents or standard agents began on Day 1 and continued for 72 hours. At the 72 hour timepoint, treatment containing media was removed. Viable cell numbers are quantified by the CellTiter-Blue® cell viability assay as described above. Experiments were repeated at least twice with the same concentrations to determine growth inhibitory activity. Results from these studies were used to calculate an IC50 value (concentration of drug that inhibits cell growth by 50 percent of control) for each compound.
(§4) For single agent and combination studies, data from each experiment was collected and expressed as % Cell Growth using the following calculation: % Cell Growth=(ftest/fvehicle)×100
(§5) Where ftest is the fluorescence of the tested sample, and fvehicle is the fluorescence of the vehicle in which the drug is dissolved. Dose response graphs and IC50 values were generated using Prism 4 software (GraphPad) using the following equation: […]
(§6) Where X is the logarithm of concentration and Y is the response. Y starts at the Bottom and goes to Top with a sigmoid shape.

The subject of assay [2] is A2780 human ovarian cells xenograft. In words: In vivo efficacy in human ovarian tumor xenograft model. The following applies: female Ncr nude mice. Here is the method: FIG. 1 depicts in vivo efficacy studies of compound #4 (N-hydroxy-4-(1-(2-methoxyethyl)-1H-benzo[d]imidazol-2-ylamino)benzamide) in A2780 xenograft models.
In vivo efficacy of the disclosed compound was tested through a human ovarian tumor xenograft model. Female Ncr nude mice were inoculated with 1×10^7 A2780 human ovarian cells suspended in a mixture of 50% Matrigel and 50% tissue culture media in a total volume of 100 μl. Four days following inoculation, the mice were pair-matched into four groups of 7-8 mice per group at an average tumor weight of 157 mg per group. Group 1 (G1) was treated with vehicle only daily for 14 days. Group 3 (G3) was treated with Compound ID #4 (T062) at 100 mg/kg daily for 14 days. Group 5 (G5) was treated with Doxil at 3 mg/kg on Day 1 only. Group 6 (G6) was treated with Compound ID #4 (T062) at 50 mg/kg (daily for 14 days) plus Doxil at 3 mg/kg on Day 1 only. Group 7 (G7) was treated with Compound ID #4 (T062) at 100 mg/kg (daily for 14 days) plus Doxil at 3 mg/kg on Day 1 only. Vehicle and Compound ID #4 were administered orally via oral gavage while Doxil was administered intravenously via tail injection. Body weights and tumor measurements were collected twice weekly. Tumor width and length were measured in millimeters and converted to tumor weight (in milligrams) using the formula […]=tumor weight (mg.).
(In general: In xenograft studies the graft and the host belong to different species.)

The test system of assay [3] is A2780 cells. In words: CellTiter-Blue cell viability assay, single agent, 72 hour treatment, A2780. The following applies: Homo sapiens. The format is cell-based. On the procedure: as §1, §2, §3, §4, §5, §6

On to `CC(C)n1c(Nc2ccc(C(=O)Nc3ccccc3N)cc2)nc2ccccc21` [ID 1, N-(2-aminophenyl)-4-(1-isopropyl-1H-benzo[d]imidazol-2-ylamino)benzamide], for which the IC50 in assay [1] came out at 4.8 µM. On to `COCCn1c(Nc2ccc(C(=O)NO)cc2)nc2ccccc21` [ID 4, N-hydroxy-4-(1-(2-methoxyethyl)-1H-benzo[d]imidazol-2-ylamino)benzamide], for which the “In vivo efficacy (tumor weight) versus Doxil as a single agent” value in assay [2] (Group 6: Compound ID #4 50 mg/kg oral daily for 14 days plus Doxil 3 mg/kg i.v. on Day 1 only) and in assay [2] (Group 7: Compound ID #4 100 mg/kg oral daily for 14 days plus Doxil 3 mg/kg i.v. on Day 1 only) was “improved efficacy over Group 5” each time. In the case of `COCCCn1c(Nc2ccc(C(=O)NO)cc2)nc2ccccc21` [ID 9, N-hydroxy-4-(1-(3-methoxypropyl)-1H-benzo[d]imidazol-2-ylamino)benzamide], the IC50 in assay [3] was found to be 1.9 µM.

On to `COCCn1c(Nc2ccc(C(=O)NO)cc2)nc2cc(Br)ccc21` [ID 10, 4-(5-bromo-1-(2-methoxyethyl)-1H-benzo[d]imidazol-2-ylamino)-N-hydroxybenzamide], for which the IC50 stood at 4.1 µM in assay [3] and 6.9 µM in assay [1]. Regarding `O=C(NO)c1ccc(Nc2nc3ccccc3n2CCO)cc1` [ID 11, N-hydroxy-4-(1-(2-hydroxyethyl)-1H-benzo[d]imidazol-2-ylamino)benzamide], the IC50 in assay [3] was 40 µM; in assay [1] it was 34 µM.

Turning to `COCCn1c(Nc2ccc(C(=O)NO)cc2)nc2cc(F)ccc21` [ID 12, 4-(5-fluoro-1-(2-methoxyethyl)-1H-benzo[d]imidazol-2-ylamino)-N-hydroxybenzamide], the IC50 turned out to be 1.4 µM in assay [3] and 0.7 µM in assay [1]. For `CC(C)OCCn1c(Nc2ccc(C(=O)NO)cc2)nc2ccccc21` [ID 13, N-hydroxy-4-(1-(2-isopropoxyethyl)-1H-benzo[d]imidazol-2-ylamino)benzamide] the same measures were 5.1 µM and 1.9 µM.

`COCCn1c(Nc2ccc(C(=O)NO)cc2)nc2cc(-c3cccc(F)c3)ccc21` [ID 14, 4-(5-(3-fluorophenyl)-1-(2-methoxyethyl)-1H-benzo[d]imidazol-2-ylamino)-N-hydroxybenzamide]: the IC50 came to 1.1 µM in assay [3] and 0.3 µM in assay [1].

For the compound `COCCn1c(Nc2ccc(C(=O)NO)cc2)nc2cc(-c3cncnc3)ccc21` [ID 15, N-hydroxy-4-(1-(2-methoxyethyl)-5-(pyrimidin-5-yl)-1H-benzo[d]imidazol-2-ylamino)benzamide], the IC50 turned out to be 16 µM in assay [3] and 48 µM in assay [1]. The matching figures for `COCCn1c(Nc2ccc(C(=O)NO)cc2)nc2cc(C3CC3)ccc21` [ID 16, 4-(5-cyclopropyl-1-(2-methoxyethyl)-1H-benzo[d]imidazol-2-ylamino)-N-hydroxybenzamide]: 15 µM and 4.3 µM.

With `CN(C)CCn1c(Nc2ccc(C(=O)NO)cc2)nc2cc(Br)ccc21` [ID 17, 4-(5-bromo-1-(2-(dimethylamino)ethyl)-1H-benzo[d]imidazol-2-ylamino)-N-hydroxybenzamide], in assay [1], the IC50 was 8.2 µM.

For the compound `CC(C)n1c(Nc2ccc(C(=O)NO)cc2)nc2cc(-c3cncnc3)ccc21` [ID 18, N-hydroxy-4-(1-isopropyl-5-(pyrimidin-5-yl)-1H-benzo[d]imidazol-2-ylamino)benzamide], the half-inhibitory concentration (IC50) in assay [1] turned out to be 21 µM. With `CC(C)n1c(Nc2ccc(C(=O)NO)cc2)nc2cc(-c3cccnc3)ccc21` [ID 19, N-hydroxy-4-(1-isopropyl-5-(pyridin-3-yl)-1H-benzo[d]imidazol-2-ylamino)benzamide], the IC50 in assay [1] was 8.1 µM. Same read-out and setting: the same measure for `COCCn1c(Nc2ccc(C(=O)Nc3ccccc3N)cc2)nc2ccccc21` [ID 20, N-(2-aminophenyl)-4-(1-(2-methoxyethyl)-1H-benzo[d]imidazol-2-ylamino)benzamide]: 5.8 µM. Take `COCCn1c(Nc2ccc(C(=O)NO)cc2)nc2ccc(F)cc21` [ID 21, 4-(6-fluoro-1-(2-methoxyethyl)-1H-benzo[d]imidazol-2-ylamino)-N-hydroxybenzamide]: the IC50 in assay [3] stood at 12.1 µM; in assay [1] it was 17.7 µM. For `COCCn1c(Nc2ccc(C(=O)NO)cc2)nc2c(F)cccc21` [ID 22, 4-(4-fluoro-1-(2-methoxyethyl)-1H-benzo[d]imidazol-2-ylamino)-N-hydroxybenzamide] the same measures were 12.1 µM and 17.6 µM.

Regarding `COCc1ccc2c(c1)nc(Nc1ccc(C(=O)NO)cc1)n2C(C)C` [ID 23, N-hydroxy-4-(1-isopropyl-5-(methoxymethyl)-1H-benzo[d]imidazol-2-ylamino)benzamide], the IC50 in assay [3] is 22 µM; in assay [1] it was 16 µM.

For the origin of these results see patent US10590088B2, “4-(benzimidazol-2-ylamino)benzamide derivatives and methods of synthesis thereof” (TRANSLATIONAL DRUG DEVELOPMENT, LLC, priority 2009, dated 2020).
